These results are taken from ChEMBL document CHEMBL6121010, “Novel antileukemic compound with sub-micromolar potency against STAT5 addicted myeloid leukemia cells” (Eur J Med Chem, 2025).

One experiment concerns KU812 cell line. Description: Antileukemic activity against human KU812 cell line assessed as inhibition of cell growth incubated for 48 hrs by MTT assay. It is filed as functional, cell-based. Conditions: KU812, 48 h.
The next experiment concerns MV4-11. Kind of experiment: Antileukemic activity against human MV4-11 cell line assessed as inhibition of cell growth incubated for 48 hrs by MTT assay. Conditions: MV4-11, 48 h. It is filed as functional, cell-based. (In general: Tetrazolium dyes change colour on reduction, which living cells bring about.)

As for `CC1(C)CCN(CCOc2ccc3[nH]ccc3c2)c2cccc(-c3cnccn3)c21`, the EC50 in the experiment with KU812 cell line worked out at 39.3 µM; in the experiment with MV4-11 it was 15.3 µM.

Take `CC1(C)CCN(CCOc2ccc3[nH]ccc3c2)c2ccc(Cc3ccccn3)cc21`: the values for the EC50 in the experiment with KU812 cell line and in the experiment with MV4-11 were 11.5 µM and 7.7 µM, respectively. As to `CC1(C)CCN(CCOc2ccc3[nH]ccc3c2)c2cc(Cc3cccnc3)ccc21`, the EC50 in the experiment on KU812 cell line worked out at 25.1 µM; in the experiment with MV4-11, 20.5 µM. With `CC1(C)CCN(CCOc2ccc3[nH]ccc3c2)c2cccc(-c3cnc(N)cn3)c21`, the figures for the EC50 with KU812 cell line and in the experiment on MV4-11 were 21.2 µM and 14.6 µM, respectively.

Regarding `CC1(C)CCN(CCOc2ccc3[nH]ccc3c2)c2cc(Cc3ccncc3)ccc21`, in the experiment with MV4-11, the EC50 turned out to be 14.3 µM.

In the case of `CC1(C)CCN(CCOc2ccc3[nH]ccc3c2)c2ccc(-c3cnc(C#N)nc3)cc21`, the EC50 in the experiment with KU812 cell line was 2.4 µM; with MV4-11, 3.5 µM.

With `CC1(C)CCN(CCOc2ccc3[nH]ccc3c2)c2ccc(-c3cnccn3)cc21`, the figures for the EC50 in the experiment on KU812 cell line and in the experiment with MV4-11 were 48.1 µM and 7.7 µM, respectively. Take `CC1(C)CCN(CCOc2ccc3[nH]ccc3c2)c2ccc(-c3ccnnc3)cc21`: the EC50 was 44.6 µM in the experiment on KU812 cell line and 16 µM with MV4-11. In the case of `CC1(C)CCN(CCOc2ccc3[nH]ccc3c2)c2cccc(-c3cncnc3)c21`, the EC50 in the experiment on KU812 cell line was above 100 µM; in the experiment with MV4-11, 51.9 µM. With `CC1(C)CCN(CCOc2ccc3[nH]ccc3c2)c2cccc(-c3cnc(Cl)nc3)c21`, the EC50 in the experiment with KU812 cell line was determined as 6.7 µM; in the experiment with MV4-11, 9 µM.

`CC1(C)CCN(CCOc2ccc3[nH]ccc3c2)c2ccc(-c3cnc(Cl)nc3)cc21`: the EC50 came to 1.3 µM in the experiment with KU812 cell line and 2.4 µM in the experiment on MV4-11. With `CC1(C)CCN(CCOc2ccc3[nH]ccc3c2)c2cccc(Cc3ccncc3)c21`, the EC50 in the experiment on KU812 cell line is 2.7 µM; with MV4-11, 1.3 µM. Taken in the same sequence, the figures for `CC1(C)CCN(CCOc2ccc3[nH]ccc3c2)c2ccc(Cc3ccncc3)cc21` were 21.3 µM and 25.8 µM. For the compound `CC1(C)CCN(CCOc2ccc3[nH]ccc3c2)c2ccc(-c3cncnc3)cc21`, the EC50 with KU812 cell line is 8.3 µM; in the experiment with MV4-11, 4.2 µM. For the compound `CC1(C)CCN(CCOc2ccc3[nH]ccc3c2)c2cccc(-c3cnc(C#N)nc3)c21`, the EC50 with KU812 cell line is 4.7 µM; in the experiment with MV4-11, 5.1 µM. Consider `CC1(C)CCN(CCOc2ccc3[nH]ccc3c2)c2ccc(-c3cnc(N)cn3)cc21`, for which the values for the EC50 in the experiment with KU812 cell line and with MV4-11 were 29.2 µM and 13.7 µM, respectively. As to `CC1(C)CCN(CCOc2ccc3[nH]ccc3c2)c2ccc(-c3ncccn3)cc21`, the EC50 worked out at 29.5 µM with KU812 cell line and 4.5 µM in the experiment with MV4-11. As to `CC1(C)CCN(CCOc2ccc3[nH]ccc3c2)c2cccc(Cc3cccnc3)c21`, the EC50 in the experiment on KU812 cell line is 9.3 µM; in the experiment with MV4-11 it was 3.1 µM.

On to `CC1(C)CCN(CCOc2ccc3[nH]ccc3c2)c2cc(Cc3ccccn3)ccc21`, for which the figures for the EC50 in the experiment on KU812 cell line and in the experiment with MV4-11 were above 100 µM and 34.2 µM, respectively. For `CC1(C)CCN(CCOc2ccc3[nH]ccc3c2)c2cccc(Cc3ccccn3)c21`, the EC50 in the experiment on KU812 cell line amounted to 74.4 µM; in the experiment with MV4-11, 12.4 µM. `CC1(C)CCN(CCOc2ccc3[nH]ccc3c2)c2cccc(-c3cccnc3)c21`: the 50% effective concentration (EC50) with KU812 cell line is 5.8 µM; with MV4-11, 5.9 µM. In the same order, the values of `CC1(C)CCN(CCOc2ccc3[nH]ccc3c2)c2ccc(Cc3cccnc3)cc21` are 5.3 µM and 4.9 µM. As for `CC1(C)CCN(CCOc2ccc3[nH]ccc3c2)c2cccc(-c3ccnnc3)c21`, the half-maximal effective concentration (EC50) was 23.5 µM with KU812 cell line and 14 µM in the experiment on MV4-11. Regarding `CC1(C)CCN(CCOc2ccc3[nH]ccc3c2)c2cccc(-c3ccncc3)c21`, the EC50 turned out to be 2.5 µM in the experiment with KU812 cell line and 2.8 µM in the experiment with MV4-11.

By EC50 is commonly meant the concentration that produces a half-maximal response.
